In ChEMBL document CHEMBL1151367, “Catharanthus alkaloids. XXXVI. Isolation of vincaleukoblastine (VLB) and periformyline from Catharanthus trichophyllus and pericyclivine from Catharanthus roseus” (1981):
In brackets after ≈: the same amount, converted by molar mass.

Assays:
[1] = Cytotoxicity against human 9KB cells; format: functional; details: read-out: ED50 (the source's name)
[2] = test system: P388; assay: Cytotoxicity against mouse P388 cells; format: functional; details: read-out: ED50 (the source's name)

SMILES: C/C=C1/CN2CC[C@]34C(=C(C(=O)OC)[C@H]1C[C@H]23)Nc1ccccc14 [AKUAMMICINE]
- EC50 [1]: 2.4 µg/mL (≈ 7.44 µM)
- EC50 [2]: 1.7 µg/mL (≈ 5.27 µM)

SMILES: CC[C@]12CN3CCc4c([nH]c5ccccc45)[C@@](C(=O)OC)(c4cc5c(cc4OC)N(C)[C@H]4[C@@](O)(C(=O)OC)[C@H](OC(C)=O)[C@]6(CC)C=CCN7CC[C@]54[C@@H]76)C[C@H](C3)[C@H]1O2 [LEUROSINE]
- EC50 [1]: 2.4 µg/mL (≈ 2.97 µM)
- EC50 [2]: 1.7 µg/mL (≈ 2.1 µM)

SMILES: CC[C@]1(O)C[C@@H]2CN(CCc3c([nH]c4ccccc34)[C@@](C(=O)OC)(c3cc4c(cc3OC)N(C)[C@H]3[C@@](O)(C(=O)OC)[C@H](OC(C)=O)[C@]5(CC)C=CCN6CC[C@]43[C@@H]65)C2)C1 [VINBLASTINE]
- EC50 [1]: 2.4 µg/mL (≈ 2.96 µM)
- EC50 [2]: 1.7 µg/mL (≈ 2.1 µM)
